# Measured values: patent US20260309717A1, “PROXIMITY INDUCING SYSTEM AND USES THEREOF” (SORBONNE UNIVERSITE, priority 2022, published 2026)
# Legend:
# Type in all cases: cell-based
# [1] = target: T1, mCherry-^FIREtag / ^FIREmate-ECFP-Giantin (Halorhodospira halophila, UniProt P16113, A30V/C69G/D97P/F96I, form not given/G21E/G25R/K17N/M100R/M109L/Q41L/Q99S/S72T/T101G/V83A/Y94W/Y98T); experiment: Recruitment of cytoplasmic protein to the Golgi apparatus, HeLa cells; conditions: 10 μM
# T1 construct: FIREmate-ECFP-Giantin(3131-3259) and mCherry-FIREtag in HeLa cells
# T1 sequence (P16113 1-114 A30V/C69G/D97P/F96I/G21E/G25R/K17N/M100R/M109L/Q41L/Q99S/S72T/T101G/V83A/Y94W/Y98T): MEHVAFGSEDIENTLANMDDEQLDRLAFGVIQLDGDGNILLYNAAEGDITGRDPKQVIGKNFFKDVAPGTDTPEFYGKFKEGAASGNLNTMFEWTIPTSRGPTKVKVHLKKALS
# Method: FIGS. 6A-E illustrate the recruitment of cytoplasmic proteins to the Golgi apparatus with the proximity inducing system described herein. FIG. 6A is a representation of the experimental design wherein HeLa cells co-expressing mCherry-^FIREtag and ^FIREmate-ECFP-Giantin were treated with 10 µM of match (either HBR-2,5DM or HMBR), and imaged by time-lapse confocal microscopy. FIGS. 6B-C are graphs showing the temporal evolution of the FIRE signal detected upon addition at 0 min of HBR-2,5DM (match1-6B) or HMBR (match2-6C). Data represents the mean values±SD of 10 cells from n=3 independent experiments (6B, D), or of 12 cells from n=3 independent experiments (6C, E). FIGS. 6D-E are sets of representative confocal micrographs of cells before (0 min) and after (5 min) addition of HBR-2,5DM (match1-6D) or HMBR (match2-6E) (mCherry: ex/em 561/606-675 nm; FIRE: ex/em 488/508-570 nm; ECFP: ex/em 445/455-499 nm). […] Scale bars are 20 μm.
# (§1) The confocal micrographs were acquired on a Zeiss LSM 980 Laser Scanning Microscope equipped with a plan apochromat 63x/1.4 NA oil immersion objective. ZEN software was used to collect the data. The images were analyzed using Icy (2.4.0.0) and Fiji (Image J). In short, to track fluorescence signal in a specific organelle, a ROI (region of interest) was determined by masking the signal in the ECFP (Enhanced Cyan Fluorescent Protein) channel with the plug-in HK-means with the following parameters: intensity class equals 100, minimum object size (pixels or px) equals 500, maximum object size (px) equals 1500-3000. The signal intensity of the ROI was tracked over time for each channel by using plug-in Active Contours. The background signal was subtracted. Data were processed using GraphPad Prism v9.3.0.
# To further evaluate the scope of the proximity inducing system described herein and show its versatility, ^FIREmate was anchored at the membrane of various organelles or cellular structures so that ^FIREmate faced the cytosol. ^FIREmate was thus fused: • to the N-terminus of the transmembrane domain (amino acid residues at positions 3131-3259) of Giantin for location at the cis-medial rims of the Golgi apparatus (FIG. 6A), • to the N-terminus of the transmembrane domain (amino acid residues at positions 100-134) of the cytochrome b5 (Cb5) for location at the endoplasmic reticulum membrane (FIG. 7A), and • to the C-terminus of the Lyn11 inner membrane targeting sequence for location at the plasma membrane (FIG. 8A).
# For each construct, an ECFP was inserted between ^FIREmate and the other protein domain/sequence to monitor the localization of the resulting fusion protein (blue fluorescence). Each fusion protein was co-expressed in mammalian cells (HeLa cells or HEK293 cells as indicated) together with mCherry-^FIREtag (red fluorescence). […]
# [2] = target: T2, FKBP-caged^FIREtag / FRB-^FIREmate (Halorhodospira halophila, UniProt P16113, A30V/C69G/D97P/F96I, form not given/G21E/G25R/K17N/M100R/M109L/Q41L/Q99S/S72T/T101G/V83A/Y94W/Y98T); experiment: Flow cytometry of ternary assembly formation with caged^FIREtag, HEK293T cells
# T2 construct: FKBP-caged FIREtag (PYP 2-114 C69G cage) and FRB-FIREmate co-expressed in HEK293T cells
# T2 sequence (P16113 1-114 A30V/C69G/D97P/F96I/G21E/G25R/K17N/M100R/M109L/Q41L/Q99S/S72T/T101G/V83A/Y94W/Y98T): T1 sequence (P16113 1-114 A30V/C69G/D97P/F96I/G21E/G25R/K17N/M100R/M109L/Q41L/Q99S/S72T/T101G/V83A/Y94W/Y98T)
# Description: FIG. 10 is a graph illustrating the fluorogen-dependent interaction between caged ^FIREtag and ^FIREmate. […] Data represent the mean values±SD of 3 independent experiments.
# Although, as indicated above, no self-complementation between ^FIREtag and ^FIREmate could be observed in the absence of fluorogen (see FIG. 3), a caged FIREt was designed to prevent any interaction with ^FIREmate in the absence of fluorogen, even at high expression levels. To cage ^FIREtag, the N-terminal domain 2-114 of Halorhodospira halophila photoactive yellow protein (PYP) C69G (corresponding to SEQ ID NO: 21) was fused to ^FIREtag. The intramolecular interaction between ^FIREtag and the N-terminal domain 2-114 of H. halophila PYP C69G induces the folding of the caged^FIREtag protein, thus preventing any intermolecular interaction of the caged^FIREtag with ^FIREmate. The fusion proteins FKBP-caged^FIREtag and FRB-^FIREmate were co-expressed in HEK293T cells. The cells were then treated with the fluorogens HBR-2,5DM at various concentrations (1, 5, 10, 25 or 50 μM as indicated), in the presence or absence of rapamycin.
# [3] = target: T3, mCherry-caged^FIREtag / ^FIREmate-ECFP-Giantin (Halorhodospira halophila, UniProt P16113, A30V/C69G/D97P/F96I, form not given/G21E/G25R/K17N/M100R/M109L/Q41L/Q99S/S72T/T101G/V83A/Y94W/Y98T); experiment: Recruitment of mCherry-caged^FIREtag to the Golgi, confocal microscopy, HeLa cells; conditions: 10 μM
# T3 construct: mCherry-caged FIREtag (PYP 2-114 C69G cage) and FIREmate-ECFP-Giantin in HeLa cells
# T3 sequence (P16113 1-114 A30V/C69G/D97P/F96I/G21E/G25R/K17N/M100R/M109L/Q41L/Q99S/S72T/T101G/V83A/Y94W/Y98T): T1 sequence (P16113 1-114 A30V/C69G/D97P/F96I/G21E/G25R/K17N/M100R/M109L/Q41L/Q99S/S72T/T101G/V83A/Y94W/Y98T)
# Method: FIGS. 11A-C illustrate the use of a caged proximity inducing system as described herein. FIG. 11A is a representation of the experimental design wherein HeLa cells co-expressing mCherry-caged^FIREtag and ^FIREmate-ECFP-Giantin were treated with 10 μM of match (i.e., HBR-2,5DM), and imaged by time-lapse confocal microscopy. FIG. 11B is a graph showing the temporal evolution of the FIRE signal detected upon addition of HBR-2,5DM at 0 min, either with ^FIREtag or with caged^FIREtag. Data represents the mean values±SD of 7 cells from n=3 independent experiments. FIG. 11C is a set of representative confocal micrographs of cells before (0 min) and after (9 min) addition of HBR-2,5DM (match1) (mCherry: ex/em 561/606-675 nm; FIRE: ex/em 488/508-570 nm; ECFP: ex/em 445/455-499 nm). […] Scale bars are 20 μm.
# as §1, with “ZEN software was used to collect the data.” left out, “The signal intensity of the ROI was tracked over time for each channel by using plug-in Active Contours. The background signal was subtracted. Data were processed using GraphPad Prism v9.3.0.” left out
structure (smiles),measurement,setting,value
"Cc1cc(/C=C2\SC(=S)NC2=O)c(C)cc1O [HBR-2,5DM, (Z)-5-(4-hydroxy-2,5-dimethylbenzylidene)-2-thioxo-1,3-thiazolidin-4-one]",FIRE signal at the Golgi apparatus,[1],simultaneous appearance of green fluorescence
same,translocation of mCherry-^FIREtag to the Golgi apparatus,[1],rapid translocation of mCherry-^FIREtag to the organelle
same,formation of fluorescent ternary assembly with caged^FIREtag and ^FIREmate,"[2]; 1, 5, 10, 25 or 50 μM, even in absence of rapamycin",could still form a fluorescent ternary assembly
same,concentration required to reach full ternary assembly with caged^FIREtag,[2]; absence of rapamycin,"higher concentrations of HBR-2,5DM were required to reach full ternary assembly in absence of rapamycin"
same,"kinetics of ternary assembly formation with caged^FIREtag, compared to ^FIREtag",[3],slower kinetics
same,recruitment of mCherry-caged^FIREtag to the Golgi,[3]; 9 min,efficient recruitment of mCherry-caged^FIREtag to the Golgi
